{
  "source": "patent US20120202209A1",
  "about": "“CELL IMAGING METHOD FOR VIEWING MICRORNA BIOGENESIS IN THE CELLS” (Centre National de la Recherche Scientifique - CNRS, priority 2009, published 2012)",
  "test_system": "Microprocessor (Drosha and DGCR8) at the C19MC locus",
  "assay": "RNA FISH combined with immunofluorescence: recruitment of the Microprocessor on pri-miRNAs near the C19MC transcription site",
  "format": "cell-based, human",
  "conditions": "cells treated with Actinomycin; data not shown",
  "excerpt": "To determine whether the Microprocessor can be visualized on the pri-miRNAs of the freshly synthesized C19MC locus, the inventors combined RNA FISH experiments with experiments for detection of proteins by immunofluorescence, according to the techniques familiar to a person skilled in the art. The inventors were thus able to detect the endogenous Drosha or DGCR8 proteins (FIG. 4). The inventors observed a co-localization of intense immunofluorescence signals for Drosha and\nRecruitment depends on transcription and probably occurs via interaction with the RNAs, since there is no detection in cells treated with Actinomycin, in which C19MC-HG is not detected near the transcription site of C19MC (data not shown).",
  "data": [
    {"substance": "Actinomycin", "values": [
      {"measurement": "detection of C19MC-HG near the transcription site of C19MC", "value": "not detected"},
      {"measurement": "detection of Microprocessor recruitment on pri-miRNAs", "value": "no detection"}
    ]}
  ]
}
